Measured values published in patent US9387221B2, “SDF-1 binding nucleic acids and the use thereof in cancer treatment” (NOXXON Pharma AG, priority 2010, dated 2016).
{PEG40k} = 40 kDa polyethylene glycol

Test system: RPMI-8226 MM cells
Assay: Chemosensitization coculture of RPMI-8226 MM cells with stromal MS-5 cells
Assay type: cell-based
Conditions: 100 nM NOX-A12, 1 μM F-ara-A, 40 hours
Method: In order to mimic the in vivo interaction of the BM microenvironment with leukemia cells, an in vitro coculture system with murine BM stromal MS-5 cells and the multiple myeloma (abbr. MM) cell line RPMI 8226 was established. Aim of the experiment was to show whether SDF-1 binding […] NOX-A12 sensitizes MM cells in coculture with stromal cells to effects of chemotherapeutic agents. Stromal MS-5 cells secreting SDF 1 were incubated with SDF-1 binding […] NOX-A12 or the non-functional revNOX-A12. The MM cell line RPMI-8226 was added to the confluent stromal cell layer. The cells were then incubated with the chemotherapeutic agent F ara A (Fludarabine) for 40 hours. Cell Viability viability was measured. The murine stromal cell line MS-5 (ACC 441) was purchased from the DSMZ, the Multiple Myeloma cell line RPMI8226 (CCL-155) was purchased from the ATCC. The Multiple Myeloma cell line RPMI8226 was maintained in RPMI medium 1640 GlutaMAX (Invitrogen) supplemented with 10% FBS (Biochrom) and penicillin-streptomycin, the MS-5 cells were cultured in MEM alpha GlutaMAX (Invitrogen) with 10% FBS and penicillin-streptomycin. […] Cell viability and cell number were determined by Flow Cytometry using the Guava EasyCyte 6HT/2L (Millipore).

“5′-40 kDa-PEG-GCGUGGUGUGAUCUAGAUGUAUUGGCUGAUCCUAGUCAGGUACGC (5' {PEG40k}, sugars by position and backbone not given here) [NOX-A12]” was tested, and the “cell viability of RPMI-8226 cells cocultured with stromal MS-5 cells” value was “only slightly affected”.
